Measured values published in ChEMBL document CHEMBL1201862, “PubChem BioAssay data set” (2004).
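All cell lines were grown in 96-well plates and treated with compound for 48 hours. The concentration for 50% growth inhibition is given as GI50.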 Active and inactive are the calls of the source. Rule as the data show it: active = GI50 up to about 1.1 µM and inactive = higher.

Columns and labels:
Test in all cases: NCI anticancer screen, dose series, 48 h
SF-539 = system: SF-539
HOP-62 = system: HOP-62
A498 = system: A498
UACC-62 = system: UACC-62
RPMI-8226 = system: RPMI-8226
DMS-114 = system: DMS-114
NCI-H522 = system: NCI-H522
HT-29 = system: HT-29
MOLT-4 = system: MOLT-4
CCRF-CEM = system: CCRF-CEM
EKVX = system: EKVX
SK-OV-3 = system: SK-OV-3
KM12 = system: KM12
SNB-75 = system: SNB-75
SK-MEL-2 = system: SK-MEL-2
Malme-3M = system: Malme-3M
XF498 = system: XF498
SNB-19 = system: SNB-19
U-251 = system: U-251
OVCAR-5 = system: OVCAR-5
NCI/ADR-RES = system: NCI/ADR-RES
SK-MEL-5 = system: SK-MEL-5
HL-60 = system: HL-60
OVCAR-4 = system: OVCAR-4
OVCAR-3 = system: OVCAR-3
MCF7 = system: MCF7
LOX IMVI = system: LOX IMVI
M19-MEL = system: M19-MEL
UACC-257 = system: UACC-257
HCC 2998 = system: HCC 2998
A549 = system: A549
RXF 393 = system: RXF 393
DLD-1 = system: DLD-1
SF-295 = system: SF-295
NCI-H23 = system: NCI-H23
OVCAR-8 = system: OVCAR-8
SN12C = system: SN12C
SF-268 = system: SF-268
HOP-18 = system: HOP-18
IGROV-1 = system: IGROV-1
UO-31 = system: UO-31
K562 = system: K562
NCI-H460 = system: NCI-H460
SK-MEL-28 = system: SK-MEL-28
HCT-116 = system: HCT-116
COLO 205 = system: COLO 205
SNB-78 = system: SNB-78
SW-620 = system: SW-620
NCI-H226 = system: NCI-H226
DMS-273 = system: DMS-273
HOP-92 = system: HOP-92
HCT-15 = system: HCT-15
M14 = system: M14
TK-10 = system: TK-10
LXFL 529 = system: LXFL 529
ACHN = system: ACHN
KM-20L2 = system: KM-20L2
CAKI-1 = system: CAKI-1
SR = system: SR
786-0 = system: 786-0

Measured: GI50

O=S(=O)(O)c1cc(/N=[N+](\[O-])c2ccc(/N=N/c3ccccc3)cc2S(=O)(=O)O)ccc1/C=C/c1ccc(/N=[N+](\[O-])c2ccc(/N=N/c3ccccc3)cc2S(=O)(=O)O)cc1S(=O)(=O)O
> 100 µM: HCT-15
inactive: SF-539 > 31.6 µM | HOP-62 > 100 µM | A498 > 100 µM | UACC-62 > 100 µM | RPMI-8226 > 100 µM | DMS-114 > 100 µM | NCI-H522 > 100 µM | HT-29 > 100 µM | MOLT-4 > 100 µM | CCRF-CEM > 95.3 µM | EKVX > 100 µM | SK-OV-3 > 100 µM | KM12 > 100 µM | SNB-75 72.8 µM | SK-MEL-2 > 100 µM | Malme-3M > 100 µM | XF498 > 100 µM | SNB-19 > 100 µM | U-251 > 100 µM | OVCAR-5 > 100 µM | NCI/ADR-RES > 100 µM | SK-MEL-5 > 100 µM | HL-60 > 100 µM | OVCAR-4 > 87.3 µM | OVCAR-3 > 100 µM | MCF7 > 100 µM | LOX IMVI > 100 µM | M19-MEL > 100 µM | UACC-257 > 100 µM | HCC 2998 > 100 µM | A549 > 100 µM | RXF 393 > 100 µM | DLD-1 > 100 µM | SF-295 > 58.3 µM | NCI-H23 > 100 µM | OVCAR-8 > 100 µM | SN12C > 100 µM | SF-268 > 100 µM | HOP-18 > 100 µM | IGROV-1 > 100 µM | UO-31 > 100 µM | K562 > 100 µM | NCI-H460 > 100 µM | SK-MEL-28 > 100 µM | HCT-116 > 100 µM | COLO 205 > 100 µM | SNB-78 > 100 µM | SW-620 > 100 µM | NCI-H226 > 32.6 µM | DMS-273 > 95.3 µM | HOP-92 > 100 µM

O=C(NN1C(=O)C(Cl)C1c1cccc(O)c1)c1ccccc1O (stereo unspecified)
inactive: SF-539 > 100 µM | A498 > 100 µM | UACC-62 > 100 µM | DMS-114 > 100 µM | NCI-H522 > 100 µM | HT-29 > 100 µM | MOLT-4 > 100 µM | CCRF-CEM > 100 µM | M14 > 100 µM | SK-OV-3 > 100 µM | KM12 > 100 µM | SNB-75 > 100 µM | SK-MEL-2 > 100 µM | Malme-3M > 100 µM | XF498 > 100 µM | SNB-19 > 100 µM | U-251 > 100 µM | SK-MEL-5 > 100 µM | HL-60 > 100 µM | OVCAR-4 > 100 µM | OVCAR-3 > 100 µM | LOX IMVI > 100 µM | M19-MEL > 100 µM | UACC-257 > 100 µM | HCC 2998 > 100 µM | A549 > 100 µM | RXF 393 > 100 µM | DLD-1 > 100 µM | SF-295 > 100 µM | TK-10 > 100 µM | NCI-H23 > 100 µM | LXFL 529 > 100 µM | OVCAR-8 > 100 µM | SN12C > 100 µM | SF-268 > 100 µM | HOP-18 24.8 µM | IGROV-1 > 100 µM | ACHN > 100 µM | UO-31 > 100 µM | K562 > 100 µM | NCI-H460 > 100 µM | SK-MEL-28 > 100 µM | HCT-116 > 100 µM | SNB-78 > 100 µM | NCI-H226 > 100 µM | DMS-273 > 100 µM
> 100 µM: HCT-15

CCCCCCC(=O)C/C(CCC(=O)N(Cc1ccccc1)Cc1ccccc1)=N\Nc1ccc([N+](=O)[O-])cc1[N+](=O)[O-]
inactive: SF-539 54.5 µM | HOP-62 > 100 µM | A498 62.8 µM | UACC-62 16.2 µM | RPMI-8226 31.9 µM | DMS-114 17 µM | NCI-H522 23.7 µM | HT-29 89.9 µM | MOLT-4 > 10 µM | CCRF-CEM 17.3 µM | EKVX 29.1 µM | M14 57.8 µM | SK-OV-3 > 100 µM | KM12 46 µM | SNB-75 39.1 µM | SK-MEL-2 83.4 µM | Malme-3M > 100 µM | SNB-19 > 100 µM | U-251 54.1 µM | OVCAR-5 > 100 µM | KM-20L2 56.8 µM | SK-MEL-5 55.5 µM | HL-60 32.2 µM | OVCAR-4 40.1 µM | OVCAR-3 35.4 µM | LOX IMVI 33.3 µM | M19-MEL 55.7 µM | UACC-257 48 µM | HCC 2998 73.6 µM | A549 46.1 µM | RXF 393 > 100 µM | DLD-1 42 µM | CAKI-1 > 100 µM | SR > 10 µM | SF-295 55.1 µM | TK-10 > 100 µM | NCI-H23 38.7 µM | LXFL 529 31 µM | OVCAR-8 54.7 µM | SN12C 56.1 µM | SF-268 39.1 µM | HOP-18 55.1 µM | IGROV-1 > 100 µM | ACHN 27.3 µM | 786-0 58.5 µM | UO-31 51.6 µM | K562 20.3 µM | NCI-H460 71.1 µM | SK-MEL-28 99.3 µM | HCT-116 35.1 µM | COLO 205 41.1 µM | SNB-78 > 100 µM | SW-620 55.6 µM | NCI-H226 > 100 µM | DMS-273 55.8 µM | HOP-92 51.1 µM
42.5 µM: HCT-15
